In US8071778B2, “Substituted heterocyclic ethers and their use in CNS disorders” (Bristol-Myers Squibb Company, priority 2006, dated 2011):
Where two headings read alike, the source gives them in different places.

Experiments:
[1] = biological target: T1, hSERT (Homo sapiens, UniProt P31645); test: SERT radioligand binding assay
T1 construct: expressed in transfected cells; host or cells: HEK-293 cells (crude membranes)
Method: (§1) NK-1 Binding assay. Crude membrane suspensions were prepared for the NK1 and SERT radioligand binding assays from U373 cells or recombinant HEK-293 cells expressing hSERT, respectively. […] The medium is removed from the flasks and the cells rinsed with HBSS without Ca and without Mg. The cells are then incubated for 5-10 minutes in 10 mM Tris-Cl, pH 7.5, 5 mM EDTA before the cells are lifted with a combination of pipetting and scraping, as needed. To prepare membranes, the cell suspension is collected into centrifuge bottles and homogenized for 30 seconds with a Polytron homogenizer. The suspension is centrifuged for 30 min 32,000×g, 4° C., then the supernatant is decanted and the pellet resuspended and homogenized in 50 mM Tris-Cl, pH 7.5, 1 mM EDTA for 10 seconds. The suspension is then centrifuged again for 30 min 32,000×g, 4° C. The supernatant is decanted and the pellet resuspended in 50 mM Tris-Cl, pH 7.5, 1 mM EDTA and briefly homogenized. A Bradford assay (Bio-rad) is performed and the membrane preparation diluted to 2 mg/ml with 50 mM Tris-Cl, pH 7.5, 1 mM EDTA. Aliquots are prepared, and then frozen and stored at −80° C.
(§2) SERT radioligand binding assay. Compounds are dissolved in 100% DMSO at a concentration 100× the desired highest assay concentration, serially diluted 1:3 in 100% DMSO, and 0.4 ul/well of each solution is dispensed to a Nunc polypropylene, round bottom, 384 well plate. […] The contents of the assay plate are then transferred to a Millipore MultiscreenHTS GF/B filter plate which has been pretreated with 0.5% PEI for at least one hour. The plate is vacuum filtered and washed with 7 washes of 100 ul/well of 50 mM Tris-Cl, pH 7.5, 120 mM NaCl, 5 mM KCl chilled to 4° C. The filtration and washing is completed in less than 90 s. The plates are air-dried overnight, 12 ul/well of MicroScint scintillation fluid added, and the plates counted in a Trilux.
(§3) Data analysis. […] Each plate is run in triplicate, and the concentration response curve thus generated is fit using the four-parameter dose response equation, Y=Bottom+(Top-Bottom)/(1+10^((Log IC50−X)*HillSlope)) in order to determine the IC50 value for each compound. The radioligand concentration chosen for each assay corresponds to the Kd concentration determined through saturation binding analysis for each assay.

[2] = biological target: T2, NK-1 (Homo sapiens, UniProt P25103); test: NK1 radioligand binding assay; settings: U373 membrane preparation, [125I]Substance P
T2 construct: endogenous in cells; host or cells: U373 cells (crude membranes)
T2 sequence (P25103 whole entry): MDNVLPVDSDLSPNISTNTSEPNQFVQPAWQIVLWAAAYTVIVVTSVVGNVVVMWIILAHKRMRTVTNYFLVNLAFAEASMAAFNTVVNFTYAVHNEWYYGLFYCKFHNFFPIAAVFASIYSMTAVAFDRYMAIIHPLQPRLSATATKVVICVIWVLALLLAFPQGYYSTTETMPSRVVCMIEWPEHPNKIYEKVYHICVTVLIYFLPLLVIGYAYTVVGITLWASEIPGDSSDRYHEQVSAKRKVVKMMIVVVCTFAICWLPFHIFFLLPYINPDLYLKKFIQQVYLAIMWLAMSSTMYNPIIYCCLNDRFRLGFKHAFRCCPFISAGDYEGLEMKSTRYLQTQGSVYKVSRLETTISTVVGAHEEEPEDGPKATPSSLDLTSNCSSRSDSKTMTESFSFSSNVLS
Method: as §1
as §2, with “NK1” for “SERT”, “0.6” for “0.4”, “20” for “50”, “0.5% (w/v) BSA” for “120 mM NaCl, 5 mM KCl”
as §3

[3] = HEK-hSERT membrane preparation, [125I]RTI-55, read-out: SERT IC50

T1 sequence (P31645 whole entry): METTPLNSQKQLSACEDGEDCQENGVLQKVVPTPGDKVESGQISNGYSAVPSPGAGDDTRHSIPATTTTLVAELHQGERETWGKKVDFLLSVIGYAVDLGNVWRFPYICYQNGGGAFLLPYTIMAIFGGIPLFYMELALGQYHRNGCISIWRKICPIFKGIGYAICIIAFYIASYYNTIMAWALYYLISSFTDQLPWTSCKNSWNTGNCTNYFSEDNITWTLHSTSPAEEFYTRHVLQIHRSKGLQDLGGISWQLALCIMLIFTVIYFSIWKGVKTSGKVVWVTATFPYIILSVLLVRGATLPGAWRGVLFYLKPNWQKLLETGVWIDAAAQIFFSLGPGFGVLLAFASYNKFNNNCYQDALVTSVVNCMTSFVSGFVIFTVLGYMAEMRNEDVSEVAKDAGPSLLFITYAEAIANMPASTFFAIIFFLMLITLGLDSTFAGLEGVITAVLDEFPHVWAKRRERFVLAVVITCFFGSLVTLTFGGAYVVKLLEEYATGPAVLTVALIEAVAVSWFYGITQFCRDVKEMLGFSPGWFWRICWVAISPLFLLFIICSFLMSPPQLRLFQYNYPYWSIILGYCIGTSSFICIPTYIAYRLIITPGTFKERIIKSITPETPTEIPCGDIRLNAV

Row | IC50 [1, 3] [nM] | SMILES | IC50 [1] [nM] | IC50 [2] [nM]
1 | – | CC1CCCN1c1cc(C(F)(F)F)cc(COCC2(c3ccc(F)cc3)CCN(C)CC2)n1 (centres unmarked) [Example 90] | 0.01 to 100 | 0.01 to 100
2 | 0.01 to 100 | Cc1ccc(-c2cc(C(F)(F)F)cc(COCC3(c4ccccc4)CCNCC3)n2)cc1 [Example 4] | – | 0.01 to 100
3 | – | CN1CCC(COCc2cc(C(F)(F)F)cc(-c3ccc(F)cc3)n2)(c2ccccc2)CC1 [Example 42] | 0.01 to 100 | 0.01 to 100
4 | – | C[C@@H]1CCCN1c1cc(C(F)(F)F)cc(COCC2(c3ccc(F)cc3)CCN(C)CC2)n1 [Example 94] | 0.01 to 100 | 0.01 to 100
5 | – | CN1CCC(COCc2cc(C(F)(F)F)cc(-c3ccc(C#N)cc3)n2)(c2ccc(F)cc2)CC1 [Example 47] | 0.01 to 100 | 0.01 to 100
6 | 0.01 to 100 | CC(OCC1(c2ccccc2)CCNCC1)c1cc(C(F)(F)F)cc(C#N)n1 (centres unmarked) [Example 32] | – | 0.01 to 100
7 | 0.01 to 100 | Cc1cc(-c2cc(C(F)(F)F)cc(COCC3(c4ccc(F)cc4)CCNCC3)n2)ccc1C#N [Example 11] | – | 0.01 to 100
8 | – | CN1CCC(COCc2cc(N3CCCC3)cc(C(F)(F)F)n2)(c2ccccc2)CC1 [Example 48] | 0.01 to 100 | 0.01 to 100
9 | 0.01 to 100 | CCN(CC)c1cc(C(F)(F)F)cc(COCC2(c3ccc(F)cc3)CCNCC2)n1 [Example 22] | – | 0.01 to 100
10 | – | COc1ccc(-c2cc(C(F)(F)F)cc(COCC3(c4ccccc4)CCN(C)CC3)n2)cc1 [Example 38, 2-(4-methoxyphenyl)-6-(((1-methyl-4-phenylpiperidin-4-yl)methoxy)methyl)-4-(trifluoromethyl)pyridine] | 0.01 to 100 | 0.01 to 100
11 | – | COc1cc(COCC2(c3ccc(F)cc3)CCN(C)CC2)cc(-c2ccc(C#N)cc2)n1 [Example 76] | 0.01 to 100 | 0.01 to 100
12 | 0.01 to 100 | N#Cc1cc(C(F)(F)F)cc(COCC2(c3ccccc3)CCNCC2)n1 [Example 31] | – | > 300
13 | – | COC(=O)c1ccc(-c2cc(C(F)(F)F)cc(COCC3(c4ccc(F)cc4)CCN(C)CC3)n2)c(F)c1 [Example 63] | 0.01 to 100 | 0.01 to 100
14 | 0.01 to 100 | Fc1ccc(C2(COCc3cc(C(F)(F)F)cc(-c4ccc(F)cc4F)n3)CCNCC2)cc1 [Example 12] | – | 0.01 to 100
15 | – | Cc1cc(-c2cc(C(F)(F)F)cc(C(C)OCC3(c4ccc(F)cc4)CCN(C)CC3)n2)ccc1C#N (centres unmarked) [Example 97] | 100 to 300 | 0.01 to 100
16 | 0.01 to 100 | Fc1ccc(C2(COCc3cc(C(F)(F)F)cc(N4CC=CC4)n3)CCNCC2)cc1 [Example 19] | – | 0.01 to 100

Row | IC50 [1, 3] [nM] | SMILES | IC50 [1] [nM] | IC50 [2] [nM]
17 | 0.01 to 100 | CCC(CC)Nc1cc(C(F)(F)F)cc(COCC2(c3ccc(F)cc3)CCNCC2)n1 [Example 21] | – | 0.01 to 100
18 | 0.01 to 100 | COc1ccc(-c2cc(C(F)(F)F)cc(COCC3(c4ccccc4)CCNCC3)n2)cc1 [Example 1, 2-(4-methoxyphenyl)-6-(((4-phenylpiperidin-4-yl)methoxy)methyl)-4-(trifluoromethyl)pyridine] | – | 0.01 to 100
19 | 100 to 300 | COc1cc(OC)nc(COCC2(c3ccccc3)CCNCC2)n1 [Example 30, 4,6-dimethoxy-2(((4-phenylpiperidin-4-yl)methoxy)methyl)pyrimidine] | – | > 300
20 | – | CN1CCC(COCc2cc(C(F)(F)F)cc(N3CCC(F)(F)C3)n2)(c2ccc(F)cc2)CC1 [Example 89] | 0.01 to 100 | 0.01 to 100
21 | 0.01 to 100 | CC(OCC1(c2ccccc2)CCNCC1)c1cc(C(F)(F)F)cc(N2CCOCC2)n1 (centres unmarked) [Example 23] | – | 0.01 to 100
22 | – | COc1ccc(-c2cc(C(F)(F)F)cc(COCC3(c4ccc(F)cc4)CCN(C)CC3)n2)cc1F [Example 75] | 0.01 to 100 | 0.01 to 100
23 | 0.01 to 100 | Fc1ccc(-c2cc(C(F)(F)F)cc(COCC3(c4ccccc4)CCNCC3)n2)cc1 [Example 5] | – | 0.01 to 100
24 | – | CC(OCC1(c2ccc(F)cc2)CCN(C)CC1)c1cc(C(F)(F)F)cc(-c2ccc(C#N)cc2)n1 (centres unmarked) [Example 96] | 0.01 to 100 | 0.01 to 100
25 | – | CN1CCC(COCc2cc(C(F)(F)F)cc(-c3ccc(F)cc3F)n2)(c2ccc(F)cc2)CC1 [Example 62] | 0.01 to 100 | 0.01 to 100
26 | – | Cc1ccc(-c2cc(C(F)(F)F)cc(COCC3(c4ccccc4)CCN(C)CC3)n2)cc1 [Example 40] | 0.01 to 100 | 0.01 to 100
27 | 0.01 to 100 | c1ccc(C2(COCc3cncc(-c4ccco4)c3)CCNCC2)cc1 [Example 9] | – | > 300
28 | 0.01 to 100 | N#Cc1ccc(-c2cc(C(F)(F)F)cc(COCC3(c4ccc(F)cc4)CCNCC3)n2)cc1 [Example 7] | – | 0.01 to 100
29 | 0.01 to 100 | CC(OCC1(c2ccccc2)CCNCC1)c1cc(C(F)(F)F)cc(-c2ccc(C#N)cc2)n1 (centres unmarked) [Example 8] | – | 0.01 to 100
30 | – | CN1CCC(COCc2cc(C(F)(F)F)cc(-c3ccc(C#N)cc3)n2)(c2ccc(C#N)cc2)CC1 [Example 84] | 0.01 to 100 | 0.01 to 100
31 | 0.01 to 100 | FC(F)(F)c1cc(COCC2(c3ccccc3)CCNCC2)nc(-c2ccncc2)c1 [Example 2] | – | 0.01 to 100

Row | SMILES | IC50 [1, 3] [nM] | IC50 [1] [nM] | IC50 [2] [nM]
32 | CN1CCC(COCc2cc(C(F)(F)F)cc(N3CCCC3)n2)(c2ccc(F)cc2)CC1 [Example 59] | 0.01 to 100 | – | 0.01 to 100
33 | CC(OCC1(c2ccc(F)cc2)CCN(C)CC1)c1cc(C(F)(F)F)cc(N2CC[C@@H](F)C2)n1 (some centres unmarked) [Example 87] | 0.01 to 100 | – | 0.01 to 100
34 | CN1CCC(COCc2cc(C(F)(F)F)cc(N3CCC(N4CCCC4)CC3)n2)(c2ccccc2)CC1 [Example 88] | 0.01 to 100 | – | > 300
